Reference: patent publication US20260191968A1, “PROTAC DEGRADERS OF MLLT1 AND/OR MLLT3” (DARK BLUE THERAPEUTICS LTD, priority 2024, published 2026)

How the values were obtained:
[1] = molecular target: T1, MLLT1 (Homo sapiens, UniProt Q03111); test: MLLT1 degradation assay in MV4-11 cells (JESS chemiluminescent detection), three concentrations, 24 h; assay type: cell-based; conditions: with respect to DMSO control
T1 construct: host or cells: MV4-11
T1 sequence (Q03111 1-559): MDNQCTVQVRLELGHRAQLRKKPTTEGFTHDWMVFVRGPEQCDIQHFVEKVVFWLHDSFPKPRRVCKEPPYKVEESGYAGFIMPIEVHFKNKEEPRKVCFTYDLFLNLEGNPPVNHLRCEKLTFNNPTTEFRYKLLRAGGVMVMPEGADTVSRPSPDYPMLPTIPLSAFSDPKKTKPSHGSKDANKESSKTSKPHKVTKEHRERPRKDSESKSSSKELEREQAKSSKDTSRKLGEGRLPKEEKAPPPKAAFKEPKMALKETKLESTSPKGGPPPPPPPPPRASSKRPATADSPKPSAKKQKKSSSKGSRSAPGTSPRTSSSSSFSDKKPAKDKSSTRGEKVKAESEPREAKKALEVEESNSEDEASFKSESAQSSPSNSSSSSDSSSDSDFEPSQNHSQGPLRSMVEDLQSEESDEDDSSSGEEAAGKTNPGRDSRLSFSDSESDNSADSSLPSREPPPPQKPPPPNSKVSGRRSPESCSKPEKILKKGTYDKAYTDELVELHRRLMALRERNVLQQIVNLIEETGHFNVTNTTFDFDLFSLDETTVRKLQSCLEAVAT
In short: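 Read-out is % MLLT1 degradation versus DMSO, from band peak areas on a JESS chemiluminescent system. Cells (MV4-11) were exposed for 24 h at 37° C to three compound levels, 10, 100 and 1000 nM, in 0.1% DMSO.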

[2] = test system: MV4-11 cells; test: MV4-11 cellular proliferative assay, Assay Format B (CTG 2.0, 168 h); assay type: cell-based; conditions: Homo sapiens, 168 h (7 days), CTG 2.0, read-out: IC50 (MV4-11 cellular proliferative assay, Assay format B)
Description: MV4-11 cells at a confluency of ~50-80% was used for cell growth assay. 600 cells/well in a 384-well opaque cell culture plate (6007680; Perkin Elmer) were seeded in 40 μL of complete medium (IMDM+10% FBS+1X Penicillin-Streptomycin). Cells were incubated overnight at 37° C., 5% CO2. 10 mM DMSO stocks were prepared, cells were treated with 10 concentrations of test compounds starting from 1 uM or 100 nM, 3-fold dilution in 10 uL (5×concentration) of complete medium. Final DMSO concentration was 0.3%. Culture plates were centrifuged at 40×g, 30s. Cells were incubated with compounds for 168 h (7 days). After 7 days, 20 uL CTG 2.0 reagent (G9242; Promega) was added per well and luminescence reading was taken in Envision Xcite 2105 multimode plate reader. Data was analyzed in GraphPad Prism 10.0 and data was shown as % viability with respect to DMSO control and dose-response curves were generated using four parameter logistic regression. Assay quality was determined by z-factor calculation using positive and negative controls.

SMILES | MLLT1% Degradation @ 0.01 μM [1] | MLLT1% Degradation @ 0.1 μM [1] | MLLT1% Degradation @ 1 μM [1] | IC50 [2] [nM]
CN1CCC[C@@H]1c1cc2cnc(NC(=O)c3ccc(CCCC4CCN(c5cccc6c5CN(C5CCC(=O)NC5=O)C6=O)CC4)cc3)cc2[nH]1 (stereo in doubt) [Example 77, 4-(3-(1-(2-((rel-S)-2,6-dioxopiperidin-3-yl)-1-oxoisoindolin-4-yl)piperidin-4-yl)propyl)-N-(2-((R)-1-methylpyrrolidin-2-yl)-1H-pyrrolo[3,2-c]pyridin-6-yl)benzamide] | A (Category A: A ≥ 75% degradation) | A (Category A: A ≥ 75% degradation) | A (Category A: A ≥ 75% degradation) | ≤ 100
CN1CCC[C@@H]1c1cc2cnc(NC(=O)c3ccc(OC4CCN(CC5CCN(c6cccc7c6CN(C6CCC(=O)NC6=O)C7=O)CC5)CC4)cc3)cc2[nH]1 (stereo in doubt) [Example 122, 4-((1-((1-(2-((rel-S)-2,6-dioxopiperidin-3-yl)-1-oxoisoindolin-4-yl)piperidin-4-yl)methyl)piperidin-4-yl)oxy)-N-(2-((R)-1-methylpyrrolidin-2-yl)-1H-pyrrolo[3,2-c]pyridin-6-yl)benzamide] | A (Category A: A ≥ 75% degradation) | A (Category A: A ≥ 75% degradation) | A (Category A: A ≥ 75% degradation) | ≤ 100
CN1CCC[C@@H]1c1[nH]c2cc(NC(=O)c3ccc(OCCC4CCN(c5cccc6c5CN(C5CCC(=O)NC5=O)C6=O)CC4)cc3)ncc2c1Cl (stereo in doubt) [Example 161, N-(3-chloro-2-((R)-1-methylpyrrolidin-2-yl)-1H-pyrrolo[3,2-c]pyridin-6-yl)-4-(2-(1-(2-((rel-S)-2,6-dioxopiperidin-3-yl)-1-oxoisoindolin-4-yl)piperidin-4-yl)ethoxy)benzamide] | A (Category A: A ≥ 75% degradation) | A (Category A: A ≥ 75% degradation) | A (Category A: A ≥ 75% degradation) | ≤ 100
CN1CCC[C@@H]1c1cc2cnc(NC(=O)c3ccc(OCCC4CCN(c5cccc6c5CN(C5CCC(=O)NC5=O)C6=O)CC4)cc3F)cc2[nH]1 (stereo in doubt) [Example 172, 4-(2-(1-(2-((rel-S)-2,6-dioxopiperidin-3-yl)-1-oxoisoindolin-4-yl)piperidin-4-yl)ethoxy)-2-fluoro-N-(2-((R)-1-methylpyrrolidin-2-yl)-1H-pyrrolo[3,2-c]pyridin-6-yl)benzamide] | A (Category A: A ≥ 75% degradation) | A (Category A: A ≥ 75% degradation) | A (Category A: A ≥ 75% degradation) | ≤ 100
CN1CCC[C@@H]1c1cc2cnc(NC(=O)c3ccc(OCC#Cc4cccc5c4CN(C4CCC(=O)NC4=O)C5=O)nc3)cc2[nH]1 (stereo partly drawn) [Example 2, 6-((3-(2-(2,6-dioxopiperidin-3-yl)-1-oxoisoindolin-4-yl)prop-2-yn-1-yl)oxy)-N-(2-((R)-1-methylpyrrolidin-2-yl)-1H-pyrrolo[3,2-c]pyridin-6-yl)nicotinamide] | A (Category A: A ≥ 75% degradation) | A (Category A: A ≥ 75% degradation) | A (Category A: A ≥ 75% degradation) | ≤ 100
CN1CCC[C@@H]1c1cc2cnc(NC(=O)c3ccc(N4CCN(CC#Cc5cccc6c5CN(C5CCC(=O)NC5=O)C6=O)CC4)nc3)cc2[nH]1 (stereo partly drawn) [Example 6, 6-(4-(3-(2-(2,6-dioxopiperidin-3-yl)-1-oxoisoindolin-4-yl)prop-2-yn-1-yl)piperazin-1-yl)-N-(2-((R)-1-methylpyrrolidin-2-yl)-1H-pyrrolo[3,2-c]pyridin-6-yl)nicotinamide] | A (Category A: A ≥ 75% degradation) | A (Category A: A ≥ 75% degradation) | B (Category B: 50% ≤ B < 75% degradation) | ≤ 100
CN1CCC[C@@H]1c1cc2cnc(NC(=O)c3ccc(CCCCC#Cc4cccc(C(=O)N[C@H]5CCC(=O)NC5=O)n4)cc3)cc2[nH]1 [Example 7, N—((S)-2,6-dioxopiperidin-3-yl)-6-(6-(4-((2-((R)-1-methylpyrrolidin-2-yl)-1H-pyrrolo[3,2-c]pyridin-6-yl)carbamoyl)phenyl)hex-1-yn-1-yl)picolinamide] | A (Category A: A ≥ 75% degradation) | A (Category A: A ≥ 75% degradation) | A (Category A: A ≥ 75% degradation) | ≤ 100
CN1CCC[C@@H]1c1cc2cnc(NC(=O)c3ccc(CCCCC#Cc4cccc(N5CCC(=O)NC5=O)n4)cc3)cc2[nH]1 [Example 9, (R)-4-(6-(6-(2,4-dioxotetrahydropyrimidin-1(2H)-yl)pyridin-2-yl)hex-5-yn-1-yl)-N-(2-(1-methylpyrrolidin-2-yl)-1H-pyrrolo[3,2-c]pyridin-6-yl)benzamide] | A (Category A: A ≥ 75% degradation) | A (Category A: A ≥ 75% degradation) | A (Category A: A ≥ 75% degradation) | ≤ 100
CN1CCC[C@@H]1c1cc2cnc(NC(=O)c3ccc(CCCC#Cc4cccc5c4CN(C4CCC(=O)NC4=O)C5=O)nc3)cc2[nH]1 (stereo partly drawn) [Example 12, 6-(5-(2-(2,6-dioxopiperidin-3-yl)-1-oxoisoindolin-4-yl)pent-4-yn-1-yl)-N-(2-((R)-1-methylpyrrolidin-2-yl)-1H-pyrrolo[3,2-c]pyridin-6-yl)nicotinamide] | B (Category B: 50% ≤ B < 75% degradation) | A (Category A: A ≥ 75% degradation) | A (Category A: A ≥ 75% degradation) | ≤ 100
CN1CCC[C@@H]1c1[nH]c2cc(NC(=O)CCCCCCC#Cc3cccc4c3CN(C3CCC(=O)NC3=O)C4=O)ncc2c1Cl (stereo partly drawn) [Example 13, N-(3-chloro-2-((R)-1-methylpyrrolidin-2-yl)-1H-pyrrolo[3,2-c]pyridin-6-yl)-9-(2-(2,6-dioxopiperidin-3-yl)-1-oxoisoindolin-4-yl) non-8-ynamide] | A (Category A: A ≥ 75% degradation) | A (Category A: A ≥ 75% degradation) | A (Category A: A ≥ 75% degradation) | ≤ 100
CN1CCC[C@@H]1c1cc2cnc(NC(=O)c3cccc(C4CCN(c5cccc6c5C(=O)N(C5CCC(=O)NC5=O)C6=O)CC4)c3)cc2[nH]1 (stereo partly drawn) [Example 14, 3-(1-(2-(2,6-dioxopiperidin-3-yl)-1,3-dioxoisoindolin-4-yl)piperidin-4-yl)-N-(2-((R)-1-methylpyrrolidin-2-yl)-1H-pyrrolo[3,2-c]pyridin-6-yl)benzamide] | B (Category B: 50% ≤ B < 75% degradation) | A (Category A: A ≥ 75% degradation) | A (Category A: A ≥ 75% degradation) | ≤ 100
CN1CCC[C@@H]1c1cc2cnc(NC(=O)c3ccc(N4CCC(CC#Cc5cccc6c5CN(C5CCC(=O)NC5=O)C6=O)CC4)nc3)cc2[nH]1 (stereo partly drawn) [Example 16, 6-(4-(3-(2-(2,6-dioxopiperidin-3-yl)-1-oxoisoindolin-4-yl)prop-2-yn-1-yl)piperidin-1-yl)-N-(2-((R)-1-methylpyrrolidin-2-yl)-1H-pyrrolo[3,2-c]pyridin-6-yl)nicotinamide] | A (Category A: A ≥ 75% degradation) | A (Category A: A ≥ 75% degradation) | B (Category B: 50% ≤ B < 75% degradation) | ≤ 100
CN1CCC[C@@H]1c1cc2cnc(NC(=O)c3ccc(N4CCC(C#Cc5cccc6c5CN(C5CCC(=O)NC5=O)C6=O)CC4)nc3)cc2[nH]1 (stereo partly drawn) [Example 17, 6-(4-((2-(2,6-dioxopiperidin-3-yl)-1-oxoisoindolin-4-yl)ethynyl)piperidin-1-yl)-N-(2-((R)-1-methylpyrrolidin-2-yl)-1H-pyrrolo[3,2-c]pyridin-6-yl)nicotinamide] | A (Category A: A ≥ 75% degradation) | A (Category A: A ≥ 75% degradation) | A (Category A: A ≥ 75% degradation) | ≤ 100
